Key:
Experiment in all cases: relative viability (nuclei count vs DMSO), 5 days (fraction); higher = more cells survive
Doxorubicin + Pemetrexed = compound: COc1cccc2c1C(=O)c1c(O)c3c(c(O)c1C2=O)C[C@@](O)(C(=O)CO)C[C@@H]3O[C@H]1C[C@H](N)[C@H](O)[C@H](C)O1 [Doxorubicin] + Nc1nc2[nH]cc(CCc3ccc(C(=O)N[C@@H](CCC(=O)O)C(=O)O)cc3)c2c(=O)[nH]1 [Pemetrexed] (partner 0.2 µM)
Method in brief: (§1)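 Lung cancer cell lines were pin-tool dosed in 1536-well plates on the day after seeding, with either a lone drug or a fixed anchor-drug dose plus five library-drug doses (not always all listed) in √10 steps. Nuclei were counted on 4× images after 5 days. Relative viability is the ratio of treated-well to vehicle-well nuclei counts, with each value a median of duplicate plates.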

Doxorubicin + Crizotinib = compound: COc1cccc2c1C(=O)c1c(O)c3c(c(O)c1C2=O)C[C@@](O)(C(=O)CO)C[C@@H]3O[C@H]1C[C@H](N)[C@H](O)[C@H](C)O1 [Doxorubicin] + C[C@@H](Oc1cc(-c2cnn(C3CCNCC3)c2)cnc1N)c1c(Cl)ccc(F)c1Cl [Crizotinib] (partner 1 µM)
Method in brief: as §1

BAY61-3606 + Linsitinib = compound: COC1=C(C=C(C=C1)C2=CC3=NC=CN3C(=N2)NC4=C(C=CC=N4)C(=O)N)OC [BAY61-3606] + C[C@]1(O)C[C@@H](c2nc(-c3ccc4ccc(-c5ccccc5)nc4c3)c3c(N)nccn32)C1 [Linsitinib] (partner 1 µM)
Method in brief: as §1

Doxorubicin + Olaparib = compound: COc1cccc2c1C(=O)c1c(O)c3c(c(O)c1C2=O)C[C@@](O)(C(=O)CO)C[C@@H]3O[C@H]1C[C@H](N)[C@H](O)[C@H](C)O1 [Doxorubicin] + O=C(c1cc(Cc2n[nH]c(=O)c3ccccc23)ccc1F)N1CCN(C(=O)C2CC2)CC1 [Olaparib] (partner 8 µM)
Method in brief: as §1

| Cell Line | relative viability (Doxorubicin + Pemetrexed; first compound 0.001 µM) | relative viability (Doxorubicin + Pemetrexed; first compound 0.003162 µM) | relative viability (Doxorubicin + Pemetrexed; first compound 0.01 µM) | relative viability (Doxorubicin + Pemetrexed; first compound 0.03162 µM) | relative viability (Doxorubicin + Pemetrexed; first compound 0.1 µM) | relative viability (Doxorubicin + Crizotinib; first compound 0.001 µM) | relative viability (Doxorubicin + Crizotinib; first compound 0.003162 µM) | relative viability (Doxorubicin + Crizotinib; first compound 0.01 µM) | relative viability (Doxorubicin + Crizotinib; first compound 0.03162 µM) | relative viability (Doxorubicin + Crizotinib; first compound 0.1 µM) | relative viability (BAY61-3606 + Linsitinib; first compound 0.02 µM) | relative viability (BAY61-3606 + Linsitinib; first compound 0.2 µM) | relative viability (BAY61-3606 + Linsitinib; first compound 0.6325 µM) | relative viability (BAY61-3606 + Linsitinib; first compound 2 µM) | relative viability (Doxorubicin + Olaparib; first compound 0.001 µM) | relative viability (Doxorubicin + Olaparib; first compound 0.003162 µM) | relative viability (Doxorubicin + Olaparib; first compound 0.01 µM) | relative viability (Doxorubicin + Olaparib; first compound 0.03162 µM) | relative viability (Doxorubicin + Olaparib; first compound 0.1 µM) | relative viability (BAY61-3606 + Linsitinib; first compound 0.06325 µM) |
| --- | --- | --- | --- | --- | --- | --- | --- | --- | --- | --- | --- | --- | --- | --- | --- | --- | --- | --- | --- | --- |
| HOP-62 | 0.356 | 0.34 | 0.302 | 0.25 | 0.349 | 1.04 | 1.02 | 0.956 | 0.901 | 1.01 | 1.11 | 0.961 | 1.11 | 0.713 | 0.396 | 0.56 | 0.365 | 0.42 | 0.296 |  |
| LK-2 | 0.225 | 0.255 | 0.228 | 0.26 | 0.238 | 0.29 | 0.223 | 0.235 | 0.227 | 0.272 | 0.487 | 0.691 | 0.834 | 0.412 | 0.713 | 0.672 | 0.585 | 0.604 | 0.653 | 0.529 |
| HCC-44 | 0.625 | 0.698 | 0.625 | 0.685 | 0.63 | 0.868 | 0.915 | 0.824 | 0.81 | 0.785 | 0.636 | 0.722 | 0.762 | 0.751 | 0.929 | 1 | 0.997 | 1.01 | 0.993 | 0.695 |
| BEN | 0.899 | 0.78 | 0.926 | 0.631 | 0.701 | 0.925 | 0.968 | 0.825 | 0.707 | 0.832 | 1.04 | 1.06 | 1.01 | 0.793 | 1.07 | 1.09 | 0.897 | 0.938 | 1.13 | 0.805 |
| NCI-H2405 | 1.05 | 1.11 | 1.05 | 0.942 | 0.445 | 0.843 | 0.869 | 0.846 | 0.871 | 0.85 | 1.05 | 0.94 | 1.12 | 0.639 | 0.864 | 0.847 | 0.788 | 0.465 | 0.421 | 0.835 |
| 201T | 0.344 | 0.325 | 0.352 | 0.338 | 0.351 | 1 | 1.07 | 1.05 | 1.05 | 1.04 | 1.05 | 0.972 | 1.01 | 1.07 | 0.849 | 0.825 | 0.837 | 0.856 | 0.831 | 0.975 |
| NCI-H358 | 0.152 | 0.183 | 0.179 | 0.156 | 0.169 | 0.728 | 0.543 | 0.441 | 0.202 | 0.0991 | 0.769 | 0.699 | 0.673 | 0.299 | 0.592 | 0.535 | 0.347 | 0.12 | 0.116 | 0.64 |
| NCI-H650 | 1.05 | 0.846 | 0.926 | 0.867 | 0.784 | 0.878 | 0.657 | 0.562 | 0.568 | 0.534 | 1.12 | 0.781 | 1.02 | 0.596 | 0.418 | 0.494 | 0.38 | 0.334 | 0.296 | 0.934 |
| PC-3 [JPC-3] | 1.2 | 1.12 | 1.15 | 1.05 | 0.663 | 0.999 | 1 | 0.977 | 0.931 | 0.936 | 0.895 | 0.947 | 1.01 | 0.93 | 1.04 | 0.944 | 1.17 | 0.897 | 0.825 | 0.906 |
| HCC-15 | 0.239 | 0.215 | 0.228 | 0.205 | 0.205 | 0.733 | 0.817 | 0.767 | 0.551 | 0.534 | 0.964 | 0.814 | 0.876 | 0.725 | 0.731 | 0.657 | 0.692 | 0.522 | 0.491 | 0.988 |
| LCLC-97TM1 | 0.188 | 0.179 | 0.179 | 0.17 | 0.181 | 0.365 | 0.455 | 0.244 | 0.344 | 0.371 | 0.182 | 0.187 | 0.18 | 0.175 | 0.398 | 0.514 | 0.438 | 0.234 | 0.394 |  |
| NCI-H647 | 0.211 | 0.168 | 0.196 | 0.127 | 0.163 | 1.02 | 1.26 | 0.84 | 0.375 | 0.17 | 1.34 | 1.46 | 1.05 | 0.661 | 0.503 | 0.47 | 0.48 | 0.0818 | 0.124 | 1.46 |
| EPLC-272H | 0.365 | 0.372 | 0.377 | 0.322 | 0.298 | 1.37 | 0.965 | 1.01 | 0.806 | 0.861 | 1.18 | 1.07 | 1.19 | 1.26 | 0.767 | 1.01 | 0.832 | 0.453 | 0.261 | 1.06 |

— the supplement of paper PMC10307832
